From patent publication US20080287479A1, “INHIBITORS OF SERINE PALMITOYLTRANSFERASE” (Pfizer Inc, priority 2006, published 2008)
Where a name gives a salt, the structure may show the parent alone.

molecular target: T1, Serine Palmitoyl Transferase (SPT); microsomes from HEK 293 cells stably transfected with human LCB2 subunit of SPT (Homo sapiens, UniProt O15270); assay: SPT flashplate assay; assay type: biochemical; details: SPTISF IC50 (nM)
T1 construct: expressed in transfected cells; host or cells: HEK 293 cells stably transfected with LCB2; microsomal fraction
T1 sequence (O15270 1-562): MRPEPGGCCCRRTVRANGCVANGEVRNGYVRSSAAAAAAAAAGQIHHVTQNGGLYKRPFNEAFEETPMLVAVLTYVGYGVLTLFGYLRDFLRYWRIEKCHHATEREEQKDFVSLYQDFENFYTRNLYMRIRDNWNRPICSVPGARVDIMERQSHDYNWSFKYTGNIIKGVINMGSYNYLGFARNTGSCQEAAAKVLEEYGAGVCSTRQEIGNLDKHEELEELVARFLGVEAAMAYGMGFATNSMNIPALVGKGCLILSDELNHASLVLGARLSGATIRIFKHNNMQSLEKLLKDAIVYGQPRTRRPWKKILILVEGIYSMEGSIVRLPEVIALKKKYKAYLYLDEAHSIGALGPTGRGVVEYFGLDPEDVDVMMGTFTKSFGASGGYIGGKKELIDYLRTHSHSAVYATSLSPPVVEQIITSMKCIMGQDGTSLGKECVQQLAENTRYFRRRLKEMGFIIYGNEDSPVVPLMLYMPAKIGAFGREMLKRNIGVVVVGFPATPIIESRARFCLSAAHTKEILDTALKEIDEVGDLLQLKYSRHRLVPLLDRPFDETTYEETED
T1 sequence (O15269 1-473 partner): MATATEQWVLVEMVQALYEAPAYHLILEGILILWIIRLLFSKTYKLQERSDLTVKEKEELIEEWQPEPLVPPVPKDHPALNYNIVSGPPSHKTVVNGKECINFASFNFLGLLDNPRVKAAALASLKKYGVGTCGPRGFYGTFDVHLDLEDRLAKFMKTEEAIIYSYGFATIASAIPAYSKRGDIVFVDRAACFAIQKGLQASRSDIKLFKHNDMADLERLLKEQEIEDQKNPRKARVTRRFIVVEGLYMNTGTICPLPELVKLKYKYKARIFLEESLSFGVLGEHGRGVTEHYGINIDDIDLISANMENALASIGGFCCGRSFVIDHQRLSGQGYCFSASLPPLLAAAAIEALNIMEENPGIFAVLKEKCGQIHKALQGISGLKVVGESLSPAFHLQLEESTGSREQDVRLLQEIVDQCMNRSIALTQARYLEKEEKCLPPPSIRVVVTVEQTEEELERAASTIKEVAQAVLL
T1 sequence (Q969W0 1-71 partner): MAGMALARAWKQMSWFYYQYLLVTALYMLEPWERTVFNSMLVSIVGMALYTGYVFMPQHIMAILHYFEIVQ

Point of comparison: `CNC(=O)c1ccc2c(c1)CC(=O)N2C1CCN(CC(=O)N2C[C@H]3CCC[C@H]3C2)CC1` [Example 20, 1-{2-[(3aR,6aS)-hexahydrocyclopenta[c]pyrrol-2(1H)-yl]-2-oxoethyl}-4-{5-[(methylamino)carbonyl]-2-oxo-2,3-dihydro-1H-indol-1-yl}piperidinium hydrogen sulfate], IC50 11.4 nM. Against it:
- CNC(=O)c1ccc2c(c1)CC(=O)N2C1CCN(CC(=O)N2CCC3(CC2)CC3)CC1 [Example 25, 1-[2-6-azaspiro[2.5]oct-6-yl)-2-oxoethyl]-4-{5-[(methylamino)carbonyl]-2-oxo-2,3-dihydro-1H-indol-1-yl}piperidinium chloride] — 4.3-fold lower, 2.64 nM
- CNC(=O)c1ccc2c(c1)CC(=O)N2C1CCN(CC(=O)N2CCC(C)(C)CC2)CC1 [Example 23, 1-[2-(4,4-dimethylpiperidin-1-yl)-2-oxoethyl]-4-{5-[(methylamino)carbonyl]-2-oxo-2,3-dihydro-1H-indol-1-yl}piperidinium chloride] — within 1.5-fold, 8.4 nM

same assay, conditions: microsomes of HEK 293 LCB2 cells, 3H-serine and palmitoyl CoA, phospholipid coated flashplate, 18-24 hours at room temperature; read-out: SPTISF IC50

Point of comparison: `CNC(=O)c1cc2[nH]c(=O)n(C3CCN(CC(=O)C4CCC(C(C)(C)C)CC4)CC3)c2cc1F` (stereo not drawn) [Example 14, 1-{1-[2-(4-tert-butylcyclohexyl)-2-oxoethyl]piperidin-4-yl}-6-fluoro-N-methyl-2-oxo-2,3-dihydro-1H-benzimidazole-5-carboxamide], IC50 106 nM. Against it:
- CNC(=O)c1cc2[nH]c(=O)n(C3CCN(CC(=O)N4CCC(C)(OC)CC4)CC3)c2cc1F [Example 32, 6-fluoro-1-{1-[2-(4-methoxy-4-methylpiperidin-1-yl)-2-oxoethyl]piperidin-4-yl}-N-methyl-2-oxo-2,3-dihydro-1H-benzimidazole-5-carboxamide] — 4.1-fold lower, 26 nM
- CS(=O)(=O)c1ccc2c(c1)[nH]c(=O)n2C1CCN(CC(=O)C2CCC(C(F)(F)F)CC2)CC1 (stereo not drawn) [Example 44, 1-{1-[2-(4-trifluoromethylcyclohexyl)-2-oxoethyl]piperidin-4-yl}-5-(methylsulfonyl)-1,3-dihydro-2H-benzimidazol-2-one] — 2.1-fold lower, 51.7 nM
- CNC(=O)c1cc2[nH]c(=O)n(C3CCN(CC(=O)C4CCC(C)(OC)CC4)CC3)c2cc1F (stereo not drawn) [Example 16, 6-fluoro-1-{1-[2-(4-methoxy-4-methylcyclohexyl)-2-oxoethyl]piperidin-4-yl}-N-methyl-2-oxo-2,3-dihydro-1H-benzimidazole-5-carboxamide] — 2-fold lower, 53 nM
- CC1(C)CCN(C(=O)CN2CCC(n3c(=O)[nH]c4cc(S(C)(=O)=O)ccc43)CC2)CC1 [Example 40, 1-{1-[2-(4,4-dimethylpiperidin-1-yl)-2-oxoethyl]piperidin-4-yl}-5-(methylsulfonyl)-1,3-dihydro-2H-benzimidazol-2-one hydrochloride] — 8.2-fold lower, 12.9 nM
- C=C1CCN(C(=O)CN2CCC(n3c(=O)[nH]c4cc(C(=O)NC)c(F)cc43)CC2)CC1 [Example 29, 6-fluoro-N-methyl-1-{1-[2-(4-methylonepiperidin-1-yl)-2-oxoethyl]piperidin-4-yl}-2-oxo-2,3-dihydro-1H-benzimidazole-5-carboxamide] — 11-fold lower, 9.4 nM
- CS(=O)(=O)c1ccc2c(c1)[nH]c(=O)n2C1CCN(CC(=O)C2CCCCC2)CC1 [Example 41, 1-[1-(2-cyclohexyl-2-oxoethyl)piperidin-4-yl]-5-(methylsulfonyl)-1,3-dihydro-2H-benzimidazol-2-one] — 3.4-fold higher, 365 nM
- CCNC(=O)c1ccc2c(c1)n(C)c(=O)n2C1CCN(CC(=O)N2CCC(C)(C)CC2)CC1 [Example 33, 1-[2-(4,4-dimethylpiperidin-1-yl)-2-oxoethyl]-4-{5-[(ethylamino)carbonyl]-3-methyl-2-oxo-2,3-dihydro-1H-benzimidazol-1-yl}piperidinium chloride] — 1.8-fold lower, 59.1 nM
- CNC(=O)c1cc2[nH]c(=O)n(C3CCN(CC(=O)C4CCCCC4)CC3)c2cc1F [Example 11, 1-[1-(2-cyclohexyl-2-oxoethyl)piperidin-4-yl]-6-fluoro-N-methyl-2-oxo-2,3-dihydro-1H-benzimidazole-5-carboxamide] — 1.7-fold lower, 63 nM
